From PubChem BioAssay (NCI)
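Five concentrations, 48 hours, 96-well plates. Definition used: TGI = concentration required for complete inhibition of growth.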

Assays:
Assay in all cases: DTP human tumour cell line panel, 48 h
NCI-H460 lung = system: NCI-H460 lung
RPMI-8226 leukemia = system: RPMI-8226 leukemia
K-562 leukemia = system: K-562 leukemia
UACC-257 melanoma = system: UACC-257 melanoma
HCT-15 colon = system: HCT-15 colon
786-0 renal = system: 786-0 renal
SF-295 CNS = system: SF-295 CNS
BT-549 breast = system: BT-549 breast
SK-OV-3 ovarian = system: SK-OV-3 ovarian
RXF 393 renal = system: RXF 393 renal
MALME-3M melanoma = system: MALME-3M melanoma
NCI/ADR-RES ovarian = system: NCI/ADR-RES ovarian
U251 CNS = system: U251 CNS
SR leukemia = system: SR leukemia
TK-10 renal = system: TK-10 renal
NCI-H226 lung = system: NCI-H226 lung
LOX IMVI melanoma = system: LOX IMVI melanoma
UACC-62 melanoma = system: UACC-62 melanoma
MDA-MB-435 = system: MDA-MB-435
SF-539 CNS = system: SF-539 CNS
NCI-H23 lung = system: NCI-H23 lung
SK-MEL-28 melanoma = system: SK-MEL-28 melanoma
A549 NSCLC = system: A549 NSCLC
HOP-92 NSCLC = system: HOP-92 NSCLC
SW-620 colon = system: SW-620 colon
HCC-2998 colon = system: HCC-2998 colon
CCRF-CEM leukemia = system: CCRF-CEM leukemia
MDA-N = system: MDA-N
HL-60(TB) leukemia = system: HL-60(TB) leukemia
SNB-75 CNS = system: SNB-75 CNS
A498 renal = system: A498 renal
HT29 colon = system: HT29 colon
OVCAR-8 ovarian = system: OVCAR-8 ovarian
M14 melanoma = system: M14 melanoma
OVCAR-4 ovarian = system: OVCAR-4 ovarian
PC-3 prostate = system: PC-3 prostate
MCF7 breast = system: MCF7 breast
MOLT-4 leukemia = system: MOLT-4 leukemia
OVCAR-3 ovarian = system: OVCAR-3 ovarian
ACHN renal = system: ACHN renal
DU-145 prostate = system: DU-145 prostate
SF-268 CNS = system: SF-268 CNS
T-47D breast = system: T-47D breast
OVCAR-5 ovarian = system: OVCAR-5 ovarian
SN12C renal = system: SN12C renal
IGROV1 ovarian = system: IGROV1 ovarian
KM12 colon = system: KM12 colon
EKVX NSCLC = system: EKVX NSCLC
SK-MEL-5 melanoma = system: SK-MEL-5 melanoma
HOP-62 NSCLC = system: HOP-62 NSCLC
MDA-MB-231 breast = system: MDA-MB-231 breast
SNB-19 CNS = system: SNB-19 CNS
COLO 205 colon = system: COLO 205 colon
HCT-116 colon = system: HCT-116 colon
CAKI-1 renal = system: CAKI-1 renal
HS 578T breast = system: HS 578T breast
UO-31 renal = system: UO-31 renal
SK-MEL-2 melanoma = system: SK-MEL-2 melanoma
NCI-H522 lung = system: NCI-H522 lung
HOP-18 NSCLC = system: HOP-18 NSCLC
XF 498 CNS = system: XF 498 CNS
LXFL 529 NSCLC = system: LXFL 529 NSCLC
KM20L2 colon = system: KM20L2 colon
M19-MEL melanoma = system: M19-MEL melanoma
DMS 273 small cell lung = system: DMS 273 small cell lung
DLD-1 colon = system: DLD-1 colon
DMS 114 small cell lung = system: DMS 114 small cell lung
SNB-78 CNS = system: SNB-78 CNS

## C/C=C(\C)C(=O)OC1C2C(C)C(=O)OC2C(O)C(C)C2C=CC(=O)C21C (stereo unspecified)
NCI-H460 lung
  TGI: 20.6 µM
RPMI-8226 leukemia
  TGI: 32.1 µM
K-562 leukemia
  TGI: 17.4 µM
UACC-257 melanoma
  TGI: 30.2 µM
HCT-15 colon
  TGI: 34.5 µM
786-0 renal
  TGI: 30.3 µM
SF-295 CNS
  TGI: 32.7 µM
BT-549 breast
  TGI: 25.2 µM
SK-OV-3 ovarian
  TGI: 39.6 µM
RXF 393 renal
  TGI: 24.5 µM
MALME-3M melanoma
  TGI: 27 µM
NCI/ADR-RES ovarian
  TGI: 49.9 µM
U251 CNS
  TGI: 24.6 µM
SR leukemia
  TGI: 18.3 µM
TK-10 renal
  TGI: 26.9 µM
NCI-H226 lung
  TGI: 46.5 µM
LOX IMVI melanoma
  TGI: 28.5 µM
UACC-62 melanoma
  TGI: 26.1 µM
MDA-MB-435
  TGI: 26.1 µM
SF-539 CNS
  TGI: 36.4 µM
NCI-H23 lung
  TGI: 27.1 µM
SK-MEL-28 melanoma
  TGI: 28.1 µM
A549 NSCLC
  TGI: 61.3 µM
HOP-92 NSCLC
  TGI: 50.5 µM
SW-620 colon
  TGI: 28.7 µM
HCC-2998 colon
  TGI: 29.8 µM
CCRF-CEM leukemia
  TGI: 35.1 µM
MDA-N
  TGI: 22.8 µM
HL-60(TB) leukemia
  TGI: 18.4 µM
SNB-75 CNS
  TGI: 43.3 µM
A498 renal
  TGI: 53.3 µM
HT29 colon
  TGI: 32 µM
OVCAR-8 ovarian
  TGI: 34.8 µM
M14 melanoma
  TGI: 31.3 µM
OVCAR-4 ovarian
  TGI: > 74.7 µM
PC-3 prostate
  TGI: 34.1 µM
MCF7 breast
  TGI: 21.6 µM
MOLT-4 leukemia
  TGI: 33.7 µM
OVCAR-3 ovarian
  TGI: 23.7 µM
ACHN renal
  TGI: 26.8 µM
DU-145 prostate
  TGI: 24.7 µM
SF-268 CNS
  TGI: 56.5 µM
T-47D breast
  TGI: 43.3 µM
OVCAR-5 ovarian
  TGI: 38.8 µM
SN12C renal
  TGI: 43.1 µM
IGROV1 ovarian
  TGI: 25.5 µM
KM12 colon
  TGI: 30.3 µM
EKVX NSCLC
  TGI: 38 µM
SK-MEL-5 melanoma
  TGI: 21.4 µM
HOP-62 NSCLC
  TGI: 40.3 µM
MDA-MB-231 breast
  TGI: 13.7 µM
SNB-19 CNS
  TGI: 26.3 µM
COLO 205 colon
  TGI: 26.3 µM
HCT-116 colon
  TGI: 22.6 µM
CAKI-1 renal
  TGI: 28.4 µM
HS 578T breast
  TGI: > 64.7 µM
UO-31 renal
  TGI: 32.8 µM
SK-MEL-2 melanoma
  TGI: 34.4 µM
NCI-H522 lung
  TGI: 12.5 µM

## CC(C)N(C(=O)C12C3C4C5C3C1(C#N)C5C42)C(C)C (stereo unspecified)
NCI-H460 lung
  TGI: > 100 µM
RPMI-8226 leukemia
  TGI: > 100 µM
HOP-18 NSCLC
  TGI: > 100 µM
K-562 leukemia
  TGI: > 100 µM
UACC-257 melanoma
  TGI: > 100 µM
XF 498 CNS
  TGI: > 100 µM
HCT-15 colon
  TGI: > 100 µM
786-0 renal
  TGI: > 100 µM
SF-295 CNS
  TGI: > 100 µM
LXFL 529 NSCLC
  TGI: > 100 µM
KM20L2 colon
  TGI: > 100 µM
SK-OV-3 ovarian
  TGI: > 100 µM
MALME-3M melanoma
  TGI: > 100 µM
U251 CNS
  TGI: > 100 µM
SR leukemia
  TGI: > 100 µM
TK-10 renal
  TGI: > 100 µM
NCI-H226 lung
  TGI: > 100 µM
LOX IMVI melanoma
  TGI: > 100 µM
UACC-62 melanoma
  TGI: > 100 µM
SF-539 CNS
  TGI: > 100 µM
NCI-H23 lung
  TGI: > 100 µM
SK-MEL-28 melanoma
  TGI: > 100 µM
M19-MEL melanoma
  TGI: > 100 µM
DMS 273 small cell lung
  TGI: > 100 µM
A549 NSCLC
  TGI: > 100 µM
HOP-92 NSCLC
  TGI: > 100 µM
SW-620 colon
  TGI: > 100 µM
HCC-2998 colon
  TGI: > 100 µM
CCRF-CEM leukemia
  TGI: > 100 µM
HL-60(TB) leukemia
  TGI: > 100 µM
SNB-75 CNS
  TGI: > 100 µM
A498 renal
  TGI: > 100 µM
HT29 colon
  TGI: > 100 µM
OVCAR-8 ovarian
  TGI: > 100 µM
DLD-1 colon
  TGI: > 100 µM
M14 melanoma
  TGI: > 100 µM
OVCAR-4 ovarian
  TGI: > 100 µM
MOLT-4 leukemia
  TGI: > 100 µM
OVCAR-3 ovarian
  TGI: > 100 µM
ACHN renal
  TGI: > 100 µM
SF-268 CNS
  TGI: > 100 µM
OVCAR-5 ovarian
  TGI: > 100 µM
SN12C renal
  TGI: > 100 µM
IGROV1 ovarian
  TGI: > 100 µM
KM12 colon
  TGI: > 100 µM
EKVX NSCLC
  TGI: > 100 µM
SK-MEL-5 melanoma
  TGI: > 100 µM
DMS 114 small cell lung
  TGI: > 100 µM
HOP-62 NSCLC
  TGI: > 100 µM
SNB-19 CNS
  TGI: > 100 µM
COLO 205 colon
  TGI: > 100 µM
HCT-116 colon
  TGI: > 100 µM
CAKI-1 renal
  TGI: > 100 µM
UO-31 renal
  TGI: > 100 µM
SK-MEL-2 melanoma
  TGI: > 100 µM
SNB-78 CNS
  TGI: > 100 µM
NCI-H522 lung
  TGI: > 100 µM
